Data on 3 compounds can be found in BindingDB's records for doi:10.1016/j.bmcl.2005.01.005 (East China Normal University, 2022).

In test [1] the target is Potassium voltage-gated channel subfamily H member 2 (Homo sapiens, UniProt Q12809). The test can be described thus: Inhibition of hERG expressed in CHO cells Qpatch-clamp electrophysiology assay. Background: Block of hERG is tested as a sign of cardiac risk.
In test [2] the target is Polyketide synthase Pks13 (Mycobacterium tuberculosis (strain ATCC 25618 / H37Rv), UniProt I6X8D2). The experiment in a line: Inhibition of Mycobacterium tuberculosis Pks13-TE expressed in Escherichia coli BL21(DE3) pLysS.
Chain of Polyketide synthase Pks13 (I6X8D2 whole entry): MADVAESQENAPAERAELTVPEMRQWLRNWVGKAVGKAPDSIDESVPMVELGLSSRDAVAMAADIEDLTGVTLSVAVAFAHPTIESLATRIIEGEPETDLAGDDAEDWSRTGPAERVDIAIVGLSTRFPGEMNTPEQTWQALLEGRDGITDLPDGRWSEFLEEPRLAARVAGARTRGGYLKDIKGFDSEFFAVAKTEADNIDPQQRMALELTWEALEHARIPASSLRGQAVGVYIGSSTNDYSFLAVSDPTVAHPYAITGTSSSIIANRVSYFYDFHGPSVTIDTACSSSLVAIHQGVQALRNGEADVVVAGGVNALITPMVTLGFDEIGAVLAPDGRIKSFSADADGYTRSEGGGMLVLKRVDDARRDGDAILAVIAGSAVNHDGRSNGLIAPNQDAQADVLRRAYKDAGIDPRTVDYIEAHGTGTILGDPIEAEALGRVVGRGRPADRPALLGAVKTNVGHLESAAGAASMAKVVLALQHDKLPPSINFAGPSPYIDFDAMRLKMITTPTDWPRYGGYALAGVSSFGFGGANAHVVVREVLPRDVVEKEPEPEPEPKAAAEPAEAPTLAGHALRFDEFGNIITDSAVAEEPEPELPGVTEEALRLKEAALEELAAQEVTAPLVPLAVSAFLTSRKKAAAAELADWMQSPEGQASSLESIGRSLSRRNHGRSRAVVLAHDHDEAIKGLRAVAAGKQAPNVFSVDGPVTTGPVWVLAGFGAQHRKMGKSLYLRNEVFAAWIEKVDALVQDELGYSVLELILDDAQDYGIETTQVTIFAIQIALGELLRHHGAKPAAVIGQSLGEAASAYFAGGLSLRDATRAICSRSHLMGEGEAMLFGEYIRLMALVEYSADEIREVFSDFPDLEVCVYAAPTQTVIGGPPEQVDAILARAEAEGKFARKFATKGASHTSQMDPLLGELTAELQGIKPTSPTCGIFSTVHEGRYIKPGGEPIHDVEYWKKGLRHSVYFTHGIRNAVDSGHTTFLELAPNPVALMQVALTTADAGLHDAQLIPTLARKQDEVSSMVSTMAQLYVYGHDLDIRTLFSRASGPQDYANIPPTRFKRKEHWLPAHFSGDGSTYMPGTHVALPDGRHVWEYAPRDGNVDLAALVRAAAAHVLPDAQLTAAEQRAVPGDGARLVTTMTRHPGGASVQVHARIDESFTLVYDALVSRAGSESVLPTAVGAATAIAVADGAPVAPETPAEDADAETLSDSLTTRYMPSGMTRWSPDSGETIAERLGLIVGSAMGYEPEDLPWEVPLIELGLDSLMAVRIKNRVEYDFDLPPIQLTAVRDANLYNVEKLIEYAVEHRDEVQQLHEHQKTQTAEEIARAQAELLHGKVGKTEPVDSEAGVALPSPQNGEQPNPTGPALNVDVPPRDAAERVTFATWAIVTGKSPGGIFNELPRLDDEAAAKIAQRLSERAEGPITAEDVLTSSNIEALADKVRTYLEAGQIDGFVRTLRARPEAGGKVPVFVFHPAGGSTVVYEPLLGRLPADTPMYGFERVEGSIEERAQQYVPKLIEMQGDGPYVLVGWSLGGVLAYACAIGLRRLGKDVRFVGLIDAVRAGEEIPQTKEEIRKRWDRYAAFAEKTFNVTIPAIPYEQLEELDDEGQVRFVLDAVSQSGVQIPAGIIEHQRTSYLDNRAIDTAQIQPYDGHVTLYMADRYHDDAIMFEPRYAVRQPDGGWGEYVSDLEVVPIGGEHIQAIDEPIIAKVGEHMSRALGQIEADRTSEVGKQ

Chain of Potassium voltage-gated channel subfamily H member 2 (Q12809 whole entry): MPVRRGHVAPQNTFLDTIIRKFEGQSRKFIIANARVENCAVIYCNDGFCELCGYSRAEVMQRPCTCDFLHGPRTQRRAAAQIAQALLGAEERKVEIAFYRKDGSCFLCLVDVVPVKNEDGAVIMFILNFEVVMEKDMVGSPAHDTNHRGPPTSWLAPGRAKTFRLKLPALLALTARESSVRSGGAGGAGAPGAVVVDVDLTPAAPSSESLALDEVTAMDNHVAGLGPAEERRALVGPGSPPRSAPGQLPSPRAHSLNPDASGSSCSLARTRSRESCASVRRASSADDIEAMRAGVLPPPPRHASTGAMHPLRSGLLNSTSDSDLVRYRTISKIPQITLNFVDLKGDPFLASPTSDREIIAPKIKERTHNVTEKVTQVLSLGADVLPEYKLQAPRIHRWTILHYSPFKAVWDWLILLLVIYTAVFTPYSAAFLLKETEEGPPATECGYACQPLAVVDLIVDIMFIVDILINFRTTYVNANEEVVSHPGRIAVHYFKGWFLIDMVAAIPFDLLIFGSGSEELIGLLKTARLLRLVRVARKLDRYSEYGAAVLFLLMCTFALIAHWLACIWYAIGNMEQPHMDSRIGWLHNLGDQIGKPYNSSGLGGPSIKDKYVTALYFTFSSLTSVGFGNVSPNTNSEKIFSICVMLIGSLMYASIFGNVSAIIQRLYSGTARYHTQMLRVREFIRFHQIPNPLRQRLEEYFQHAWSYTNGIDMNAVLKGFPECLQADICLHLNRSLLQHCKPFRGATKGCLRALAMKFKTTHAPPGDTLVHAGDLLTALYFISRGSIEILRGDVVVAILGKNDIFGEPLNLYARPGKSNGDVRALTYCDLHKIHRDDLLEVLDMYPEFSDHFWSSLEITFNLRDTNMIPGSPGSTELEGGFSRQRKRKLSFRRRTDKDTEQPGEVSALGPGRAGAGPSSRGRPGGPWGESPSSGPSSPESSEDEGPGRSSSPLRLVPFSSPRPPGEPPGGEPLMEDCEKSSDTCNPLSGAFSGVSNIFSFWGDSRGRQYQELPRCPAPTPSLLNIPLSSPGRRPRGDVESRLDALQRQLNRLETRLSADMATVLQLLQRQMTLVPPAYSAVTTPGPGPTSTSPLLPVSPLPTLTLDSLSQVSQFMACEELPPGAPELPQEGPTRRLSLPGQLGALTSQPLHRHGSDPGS

As usually defined, the IC50 is the concentration needed to halve the response being measured. Low values mean greater potency, high ones weaker potency. In test [1], `O=c1oc2cc(O)ccc2c2oc3ccc(O)c(CN4CCCCC4)c3c12` gave an IC50 above 30000 nM. In the case of `O=c1oc2cc(O)ccc2c2oc3ccc(O)c(CN4CCC(F)CC4)c3c12`, the IC50 in test [2] is 1550 nM. With `O=c1oc2cc(O)ccc2c2oc3ccc4c(c3c12)CN(C1CCCC1)CO4`, the IC50 worked out at 520 nM in test [1] and 1300 nM in test [2].
